Test results: patent US4395969A (priority 1981, dated 1983)

Tests used:
chinook salmon = details: chinook salmon, in vivo, 96 h
spotted sucker = assay: Exploratory bioassay, spotted sucker; assay type: in vivo, Minytrema melanops; details: less than 24 h; 15 C; 31 to 38 mm
Method: (§1) Cursory bioassays were made with small numbers of other fishes and a crayfish (Pacifasticus klamathensis) to check on the universal selectivity of the toxicants. The fishes included Arctic grayling (Thymallus arcticus), longnose sucker (C. catastomus), largescale sucker, (C. macrocheilus), and spotted sucker (Minytrema melanops).
A series of five 24-hour biassays was made with the spotted sucker (2 fish per aquarium) at a concentration range of 1 mg/l to 5 mg/l of 2, 2-dichlorovinyl diethyl phosphate. The chemical killed all of the spotted suckers (31 to 38 mm) at 1 mg/l in less than 24 hours at 15 C.

longnose sucker = assay: Exploratory bioassay, longnose sucker; assay type: in vivo, C. catastomus; details: less than 24 h; 15 C; 47 to 61 mm
Method: as §1
A series of 24-hour bioassays was made with the longnose sucker (1 fish per aquarium) at a concentration range of 0.1 mg/l to 4.5 mg/l of 2, 2-dichlorovinyl diethyl phosphate. The chemical killed the longnose sucker (47 to 61 mm) at a concentration of 0.2 mg/l and higher in less than 24 hours at 15 C.
Three longnose suckers (about 125 mm) and three Arctic grayling (about 125 mm) were exposed to 10 μg/l of 2, 2, 2, 1-tetrachloroethyl diethyl phosphate. The suckers died between 14 and 22 hours at 13 C. The grayling were not affected in 48-hour biassays.

in vivo = details: steelhead trout
stickleback = assay: Deactivation with activated carbon, survival of stickleback; assay type: in vivo; details: 2 mg/l; for Mean survival time, bioassay started 18 hours after chemical was added / Mean survival time, bioassay started when chemical was added: river water, 15 C
Method: A second lot of 5 fish was added to each aquarium 18 hours after the first lot of 10 fish had died or lost their equilibrium. As the life of the first lot of fish was short, the test water was only slightly conditioned by the dying fish and any error introduced by this procedure was relatively small.

coho salmon = assay: Static bioassay, lethal concentration to coho salmon; assay type: in vivo, Oncorhynchus kisutch; details: 10 C
Method: (§2) Bioassays utilized water from an artesian well at Moscow, Idaho and from the headwaters of the Palouse River, also in Idaho. The chemical characteristics of the artesian water were analyzed as follows: Total hardness 67-120 mg/l; total dissolved solids, 160-175 mg/l; and pH 7.1. The chemistry of the Palouse River water was analyzed as follows: total hardness 17 mg/l; methyl orange alkalinity 26 mg/l; total dissolved solids, 32 mg/l and pH, 7.0.
(§3) Fish were acclimated to test temperatures, usually at 5, 7.5, 10, 15 and 20 degrees Celsius (C), at least 60 hours before exposure to toxicants. For fish and crayfish four water baths regulated the temperature of assay aquaria. Each water bath contained a battery of 20 identical 19-liter clear glass containers or 11.4-liter plastic aquaria lined with disposable polyethylene bags and covered with Plexiglass lids to reduce evaporation. For larger fish and large numbers of fish the bioassays were made in two temperature controlled rooms that contained a series of 700-liter circular fiberglass vats and a series of 76- and 91-liter plastic containers.
(§4) Standard bioassay techniques were used in sorting fish and conducting the tests. Fish were placed in aerated test aquaria overnight to permit fish to recover from stress due to handling and to deprive them of food. The average load varied but most bioassays were conducted with about 1 g of fish per liter of water.
(§5) Aliquots of organophosphates were dissolved in ethanol and dispensed to the aquaria to provide concentrations suitable for obtaining the LC0 and LC50 of desirable fish and the LC50 and LC100 of target fish. Control fish were conditioned in the same manner as the test fish, but no chemical was added to the control vessels during the assays. After the addition of a chemical, observations were made mainly at 3, 6, 12, 24, 48, 96, and 192 h. The weight and fork length of fish were obtained when fishes were sacrificed.
(§6) Delineation bioassays determined primarily the LC50 and LC100 of sucker and stickleback and the LC0 and LC50 of salmonids.
(§7) The statistical LC1, LC50, and LC99 were interpolated and/or extrapolated using probit graph paper to approximate the LC0, LC50, and LC100 when the latter set of values was not closely determined by single concentrations in a series.
(§8) Threespine stickleback, brook stickleback, bridgelip sucker, white sucker, chinook salmon, coho salmon, sockeye salmon, kokanee, Kamloops trout, cutthroat trout, and brook trout were treated with various concentrations of 2, 2, 2, 1-tetrachloroethyl diethyl phosphate and at various temperatures to determine approximate selectivity and safety indices. The approximate LC50 and LC100 of the target fishes (threespine and brook sticklebacks and bridgelip and white suckers) are tabulated in Table 5. The 96-hour selectivity and safety indices of selected species of salmonids versus the threespine stickleback are tabulated in Table 7.

[1] = as above; assay type: in vivo, Oncorhynchus kisutch; details: coho salmon, water, 10 C
Method: as §2, §3, §4, §5, §6, §7, §8

With `CCOP(=O)(OC=C(Cl)Cl)OCC` [2,2-dichlorovinyl diethyl phosphate] the LC50 (chinook salmon) was 3.4 µg/mL, the “concentration that killed all of the spotted suckers” value (spotted sucker) was 1 mg/L and the “concentration that killed longnose sucker” value (longnose sucker) was at least 0.2 mg/L. The LC50 at 96 h (in vivo) was 7.1 µg/mL, the LC50 at 192 h (in vivo) was 2.8 µg/mL and the “effect of activated carbon on mortality” value (stickleback) was “delayed mortality”. The “survival time after 18-hour deactivation period” value (stickleback; 8 and 32 mg/l of carbon) was “about tripled”, the “Mean survival time, bioassay started 18 hours after chemical was added” value (“Mean survival time … after chemical was added” for short) (stickleback; activated carbon 0 mg/l) was 9.5 h and the “Mean survival time, bioassay started when chemical was added” value (stickleback; activated carbon 0 mg/l) was 7.5 h. For the same molecule, the “Mean survival time … after chemical was added” value (stickleback; activated carbon 4 mg/l) was 8.0 h, the “Mean survival time, bioassay started when chemical was added” value (stickleback; activated carbon 4 mg/l) was 9.2 h and the “Mean survival time … after chemical was added” value (stickleback; activated carbon 8 mg/l) was 33.5 h. For the same molecule, the “Mean survival time, bioassay started when chemical was added” value (stickleback; activated carbon 8 mg/l) was 10.8 h, the “Mean survival time, bioassay started when chemical was added” value (stickleback; activated carbon 16 mg/l) was 12.0 h and the “Mean survival time, bioassay started when chemical was added” value (stickleback; activated carbon 32 mg/l) was 22.0 h. The “Mean survival time … after chemical was added” value (stickleback; activated carbon 32 mg/l, 1 fish did not die (observed 11 days)) was 95.0 h.
With `CCOP(=O)(OCC)OC(Cl)C(Cl)(Cl)Cl` (stereo not drawn) [2,2,2,1-tetrachloroethyl diethyl phosphate] the LC0 (coho salmon; 48 h) was 30 µg/L, the LC0 (coho salmon; 96 h) was 14 µg/L and the LC0 (coho salmon; 192 h) was 8 µg/L. For the same molecule, the LC50 at 96 h ([1]; 96 h) was 0.023 µg/mL and the LC50 at 192 h ([1]; 192 h) was 0.015 µg/mL.
